How the values were obtained:
[1] = Pharmacokinetics of carboplatin in nude mice bearing LS174T xenografts; type: in vivo; details: for AUC / CL / Cmax / T1/2 / Vss: nude mice bearing LS174T xenografts, carboplatin 60 mg/kg iv
Description: Pharmacokinetics and Tissue Distribution of Carboplatin. Pharmacokinetic studies were carried out using a protocol similar to that previously described (26) using metabolism cages. Female nude mice bearing human colon cancer LS174T xenografts or human lung cancer A549 xenografts were used (3 animals for each time point). Animals were pre-treated with DEX (s.c., 0.1 mg/day/mouse for 5 days) or saline (as controls) and, at 1 hr after the fifth dose of DEX, were given a single intravenously (i.v.) bolus administration of carboplatin (60 mg/kg) via a tail vein. At various times (5, 15, and 30 min, 1, 2, 4, 8, and 24 hr after carboplatin dosing), blood samples were collected in heparinized tubes and tissue samples removed. Plasma was separated by centrifugation at 20,000 g for 5 min. Tissues including liver, kidneys, spleen, and tumor were taken at various times and immediately blotted on Whatman No. 1 filter paper, trimmed of extraneous fat or connective tissue, weighed, and homogenized in 0.9% NaCl physiological saline (5 mL per gram of wet weight). The resultant homogenates were stored at −70° C. until further analysis. Bone marrow cells were harvested by flushing the femurs with sterile physiological saline as reported previously (30). Briefly, after removing the distal and proximal ends of femur, each end of the bone was punctured with a 20-gauge needle fitted with a 5 mL syringe containing 1 mL of sterile physiological saline (pre-weighed). The bone was then held with a forceps over a test tube and the needle was inserted into the hole in the proximal end. The 1 mL saline was flushed through the bone into the tube by applying gentle, steady pressure to the plunger. The syringe was then filled with 5 ml of air that was gently forced through the bone to remove the remaining saline and bone marrow in the shaft. The resultant bone marrow cell suspension was weighed and lysed by sonicating 5 times for periods of 10 sec. Following centrifugation at 20,000 g for 30 min, the supernatant was removed and stored at −70° C. until further analysis.
HPLC Analysis of Carboplatin in Plasma and Tissues. Carboplatin in biological samples was analyzed by an analytical procedure involving micro-filtration and reversed-phase HPLC (31). 200 μL of plasma or tissue homogenates or bone marrow suspension was added to the reservoir of a Centrifree™ micropartition system. The latter was capped and centrifuged at 2,000 g for 5 min. All filtrates were transferred into a new micro centrifuge tube and 6 μL of the filtrates was injected onto the HPLC column. The HPLC system consisted of a Hewlett Packard 1050 ChemStation with a UV detector (Agilent 1050 series). Determination of Carboplatin was achieved using a LiChrosorb™ diol (10 μm, 250×4.6 mm) analytical column with a LiChroCART 100 RP-18 guard column. The mobile phase for plasma was composed of 98:2 acetonitrile:H2O (vol/vol) and 89:11 acetonitrile: 0.015% H3PO4 (vol/vol) for urine and tissue samples. The flow rates were 2 mL/min (for plasma) and 1.1 mL/min (for urine and tissue samples). The column elute was monitored by UV at 229 nm. Quantitation of plasma or tissue carboplatin was carried out by using an external standard curve (0-4,000.0 μg/mL) that was freshly prepared on a daily basis. Linear regression and correlation analysis were carried out to establish the standard peak-area/concentration curves for carboplatin.
Data and Statistical Analysis.

human cancer xenografts = assay: Six murine-human cancer xenograft models overall: efficacy and toxicity; details: nude mice; carboplatin 120 mg/kg, gemcitabine 160 mg/kg i.p.
Description: Human cancer xenograft models were established using the methods reported previously (26-29). When confluence reached 80%, cultured LS174T, MCF-7, MDA-MB-468, U87-MG, A549 and H1299 cells were harvested from the monolayer cultures, washed with the above indicated serum-free medium and resuspended in the same medium with Matrigel® basement membrane matrix at a 3:1 ratio, and then injected subcutaneously (s.c.) (5×10^6 cells, total volume 0.2 mL) into the left inguinal area of the nude mice. The animals were monitored for activity, physical condition, determination of body weight, and measurement of tumor growth. Tumor growth was determined by caliper measurement in two perpendicular diameters of the implant every other day. Tumor weight (in g) was calculated by the formula, 1/2a×b^2 where “a” is the long diameter and “b” is the short diameter (in cm).
Nude mice bearing human cancer xenografts were randomly divided into various treatment and control groups (5 mice/group). In treatment groups, animals were pre-treated with DEX subcutaneously (s.c., 0.1 mg/day for 5 days, Day −4-0) or saline (as controls). Carboplatin was administered intraperitoneally (i.p.) at a single dose of 120 mg/kg (360 mg/m^2) on day 0.
The antitumor activity (tumor mass) and peripheral blood counts were expressed as mean and standard deviations and the significance of differences were analyzed by ANOVA.
When mean tumor mass reached 44-68 mg, animals were treated with s.c. DEX at a dose of 0.1 mg/day for 5 days, followed by chemotherapy.

[2] = LS174T nude mice, without DEX treatment

For `N.N.O=C([O-])C1(C(=O)[O-])CCC1.[Pt+2]` [carboplatin], the “decrease in tumor Clearance by DEX pretreatment” value ([1]; LS174T nude mice) was 160%, the “increase in tumor AUC by DEX pretreatment” value ([1]; LS174T nude mice) was 200% and the “increase in tumor Cmax by DEX pretreatment” value ([1]; LS174T nude mice) was 100%. For the same compound, the “tumor AUC relative to bone marrow AUC” value [1, 2] was 3%, the “tumor AUC relative to liver AUC” value [1, 2] was 23% and the “tumor AUC relative to spleen AUC” value [1, 2] was 4%. For the same compound, the AUC ([1]; bone marrow, DEX (+)) was 269710 ng·h/mL, the CL ([1]; bone marrow, DEX (+)) was 0.22 mL/g/h and the Cmax ([1]; bone marrow, DEX (+)) was 22560 ng/mL. For the same compound, the T1/2 ([1]; bone marrow, DEX (+)) was 410 min, the Vss ([1]; bone marrow, DEX (+)) was 2.17 mL/g and the AUC ([1]; bone marrow, DEX (−)) was 411270 ng·h/mL. The CL ([1]; bone marrow, DEX (−)) was 0.15 mL/g/h, the Cmax ([1]; bone marrow, DEX (−)) was 23360 ng/mL and the T1/2 ([1]; bone marrow, DEX (−)) was 669.6 min. For the same compound, the Vss ([1]; bone marrow, DEX (−)) was 2.42 mL/g, the AUC ([1]; liver, DEX (+)) was 42450 ng·h/mL and the CL ([1]; liver, DEX (+)) was 1.41 mL/g/h. It also gave a Cmax ([1]; liver, DEX (+)) of 19410 ng/mL, a T1/2 ([1]; liver, DEX (+)) of 33.6 min and a Vss ([1]; liver, DEX (+)) of 1.14 mL/g. For the same compound, the AUC ([1]; liver, DEX (−)) was 51520 ng·h/mL, the CL ([1]; liver, DEX (−)) was 1.16 mL/g/h and the Cmax ([1]; liver, DEX (−)) was 26970 ng/mL. It also gave a T1/2 ([1]; liver, DEX (−)) of 29.4 min, a Vss ([1]; liver, DEX (−)) of 0.82 mL/g and an AUC ([1]; plasma, DEX (+)) of 43160 ng·h/mL. For the same compound, the CL ([1]; plasma, DEX (+)) was 1.39 mL/g/h, the Cmax ([1]; plasma, DEX (+)) was 280800 ng/mL and the T1/2 ([1]; plasma, DEX (+)) was 6.6 min. It also gave a Vss ([1]; plasma, DEX (+)) of 0.21 mL/g, an AUC ([1]; plasma, DEX (−)) of 44510 ng·h/mL and a CL ([1]; plasma, DEX (−)) of 1.35 mL/g/h. The Cmax ([1]; plasma, DEX (−)) was 375270 ng/mL, the T1/2 ([1]; plasma, DEX (−)) was 4.8 min and the Vss ([1]; plasma, DEX (−)) was 0.16 mL/g. For the same compound, the AUC ([1]; spleen, DEX (+)) was 480 ng·h/mL, the CL ([1]; spleen, DEX (+)) was 126.35 mL/g/h and the Cmax ([1]; spleen, DEX (+)) was 9440 ng/mL. The T1/2 ([1]; spleen, DEX (+)) was 2.4 min, the Vss ([1]; spleen, DEX (+)) was 6.36 mL/g and the AUC ([1]; spleen, DEX (−)) was 353360 ng·h/mL. The CL ([1]; spleen, DEX (−)) was 0.17 mL/g/h, the Cmax ([1]; spleen, DEX (−)) was 24200 ng/mL and the T1/2 ([1]; spleen, DEX (−)) was 595 min. It also gave a Vss ([1]; spleen, DEX (−)) of 2.43 mL/g, an AUC ([1]; tumor, DEX (+)) of 33540 ng·h/mL and a CL ([1]; tumor, DEX (+)) of 1.79 mL/g/h. It also gave a Cmax ([1]; tumor, DEX (+)) of 89800 ng/mL, a T1/2 ([1]; tumor, DEX (+)) of 15.6 min and a Vss ([1]; tumor, DEX (+)) of 0.67 mL/g. For the same compound, the AUC ([1]; tumor, DEX (−)) was 12790 ng·h/mL, the CL ([1]; tumor, DEX (−)) was 4.69 mL/g/h and the Cmax ([1]; tumor, DEX (−)) was 44160 ng/mL. For the same compound, the T1/2 ([1]; tumor, DEX (−)) was 12 min, the Vss ([1]; tumor, DEX (−)) was 1.36 mL/g and the death (human cancer xenografts) was “no death occurred”. The “tolerability by inspection and animal weights” value (human cancer xenografts) was “tolerated well”.

Reference: patent US20050244335A1, “Methods and compositions related to increasing antitumor activity of chemotherapeutic agents” (priority 2004, published 2005)
